In patent US20210338684A1, “DIAGNOSTIC AND THERAPEUTIC METHODS FOR CANCER” (Genentech, Inc., priority 2016, published 2021):
“Also recorded” adds a separate entry of the source.

What was measured:
[1] = system: SMARCA2; experiment: SMARCA2 expression (Taqman quantitative RT-PCR, Western blot); conditions: for induction of SMARCA2 transcript and protein: 6 or 10 days
[2] = system: SMARCA4-mutant cancer cell lines; experiment: Clonogenic assay (colony formation)
[3] = system: ARID1A-mutant cell lines; experiment: 3D Matrigel culture, acini formation; assay type: cell-based, human
Description: Wells of a 24 well plated were coated with 70 μl Matrigel Matrix (Corning) and allowed to congeal at room temperature. Cells (n=5,000) were plated on top of the basement matrix in 400 μl RPMI+10% FBS containing 2% Matrigel matrix. Cells were treated with the respective compounds in 400 μl media to replenish the old media. Colonies were imaged on a Zeiss Axio Observer A1 microscope 10 days after the start of experiment.

[4] = system: ARID1A-mutant cancer cell lines; experiment: Clonogenic assay (colony formation); assay type: cell-based, human
Description: (§1) 1,800-5,000 cells were plated in each 6-well plate, according to the doubling time. 24 hours after plating, the medium was removed and replaced with medium containing EPZ-6438 at different concentrations. Fresh medium with EPZ-6438 was replaced every 3 to 4 days until control cells reached confluence to stop culture. For studies evaluating the effect of EZH2 knockout, cells were plated 7 days following puromycin selection. The medium was removed, and cells were washed with PBS and stained with 0.5% crystal violet for 20 minutes at room temperature. Dye was removed, cell monolayers were washed with water, and the plate was washed and photographed.

[5] = target: SMARCA4-mutant EPZ-6438-sensitive models; experiment: Senescence β-galactosidase staining; assay type: cell-based, human
Description: (§2) Apoptosis was monitored through (a) live cell imaging analysis using the Incucyte Caspase-3/7 Apoptosis Assay (Essen Biosciences, Cat. No. 4440) or through a static time point assessment using the Caspase-Glo 3/7 Assay (Promega, G8090). For Incucyte-based assays (FIG. 4B), 300-600 cells (based on doubling time) were plated in 96-well plates, and at 24 hours, media was replaced with EPZ-6438-containing media at the indicated concentrations and Caspase 3/7 reagent (Essen Bioscience). Fresh media containing EPZ-6438 and Caspase 3/7 reagent was replaced every 3 to 4 days. Phase contrast and fluorescent images were collected every 3 hours, and the number of fluorescent objects were counted and analyzed according to the Incucyte protocol. Data are presented as Caspase 3/7 fluorescent counts normalized to DMSO control at the indicated time points. For determination of apoptosis by Caspase-Glo (FIG. 18C, 19G), TO[…] cells were plated at 500 cells per well in a 96 well plate and treated with the indicated concentrations of EPZ-6438 for 6 days. Caspase 3/7 activity was measured according to the manufacturer's instructions, and results were normalized to signal in DMSO control wells, when indicated. To evaluate senescence induction, cells were stained for β-galactosidase activity using the Senescence Cells Histochemical Staining Kit (Sigma), according to the manufacturers instructions.

[6] = system: cathepsin B (CTSB); experiment: CTSB transcript and protein expression; assay type: cell-based, human; conditions: TOV-112D control cells, 5 μM
Description: For studies evaluating EPZ-6438 effects, cells were treated with various doses of EPZ-6438 for 6 days. On day 3, fresh medium containing EPZ-6438 was introduced. Cell pellets were lysed in RIPA buffer containing 1M NaCl and homogenized for 3 minutes at speed 10 (NextAdvance, Bullet Blender® 24). 12 μg or 18 μg protein was dissolved in 4-12% bis-Tris or 3-8% Tris-acetate gel and transferred to polyvinylidend difluoride (PVDF) membranes. IRDYE® secondary antibodies were used for detection by an Odyssey Imager (LI-COR). Total RNA was extracted using Qiagen RNeasy Plus Mini kit, according to the manufacturers protocol. Quality control of samples was performed to determine RNA quantity and quality prior to their processing by RNA-seq. The concentration of RNA samples was determined using NanoDrop 8000 (Thermo Scientific) and the integrity of RNA was determined by Fragment Analyzer (Advanced Analytical Technologies). 0.5 μg of total RNA was used as an input material for library preparation using TruSeq RNA Sample Preparation Kit v2 (Illumina). Size of the libraries was confirmed using 2200 TapeStation and High Sensitivity D1K screen tape (Agilent Technologies), and their concentration was determined by qPCR based method using Library quantification kit (KAPA). The libraries were multiplexed and sequenced on Illumina HiSeq2500 (Illumina) to generate 30M of single end 50 base pair reads.

[7] = system: SMARCA4-mutant cell lines; experiment: Cell morphology after prolonged treatment; assay type: cell-based, human; conditions: EPZ-6438-sensitive models, 21 days of treatment, 5 μM
[8] = system: NCI-H522 xenografts; experiment: Xenograft study, tumor growth; assay type: in vivo, mouse; conditions: oral
Description: (§3) TOV-21G and NCI-H522 cells (American Type Culture Collection, Manassas, Va.) were cultured in vitro and harvested in HBSS:Matrigel (BD Biosciences; Franklin Lakes, N.J.) (1:1, v:v) for subcutaneous inoculation into female mice. TOV-21G cells were inoculated into Fox Chase SCIO® Beige mice (Charles River Laboratories, San Diego, Calif.). NCI-H522 cells were inoculated into BALB/c Nude mice (Vital River Laboratories, Beijing, China). Mice bearing established tumors were separated into groups of equally sized tumors (n=5, minimum) to receive escalating doses of EPZ-6438. EPZ-6438 was formulated once weekly in 0.5% sodium carboxymethylcellulose and 0.1% tween-80 at concentrations needed for target doses in a volume of 0.2 ml. All formulations were stored at 4° C., brought to room temperature, and mixed by vortex before oral administration by gavage twice daily from Day 1 until the end of the study. Tumor volumes were calculated from perpendicular length and width caliper measurements using the formula:
(§4) Tumor Volume (mm^3)=0.5×(Length×Width^2).
(§5) A mixed modeling approach was used to analyze the repeated measurement of tumor volumes from the same animals over time. Cubic regression splines were used to fit a nonlinear profile to the time courses of log 2-transformed tumor volumes in each group. Fitting was done via a linear mixed-effects model, using the package “nlme” (version 3.1-97) in R version 2.13.0 (R Development Core Team 2008; R Foundation for Statistical Computing; Vienna, Austria). Fitted tumor volumes were plotted in the natural scale in Prism (version 5.0b for Mac) (GraphPad Software; La Jolla, Calif.).

[9] = system: TOV-21G tumor xenografts; experiment: Xenograft study, tumor growth; assay type: in vivo, mouse; conditions: SCID mice, 450 mg/kg BID, 28 days
Description: as §3, §4, §5

[10] = system: mono-, di-, and tri-methylated H3K27; experiment: Western blot of H3K27 methylation in cells
[11] = system: SMARCB1-mutant malignant rhabdoid tumor lines; experiment: Clonogenic assay (colony formation); assay type: cell-based, human; conditions: two SMARCB1-mutant malignant rhabdoid tumor lines
Description: as §1

[12] = system: SWI/SNF wild-type models; experiment: Clonogenic assay (colony formation); assay type: cell-based, human; conditions: panel (n=8) of cell lines wildtype for SWI/SNF complex genes
Description: as §1

[13] = system: NCI-H522 cells; experiment: Edu incorporation (DNA synthesis); assay type: cell-based, human; conditions: 8 weeks of treatment, relative to resistant NCI-H1568
[14] = system: SMARCA4-mutant cell lines; experiment: Caspase 3/7 apoptosis assay; assay type: cell-based, human; conditions: several other models, prolonged exposure
Description: as §2

[15] = system: TOV-112D cells; experiment: Caspase 3/7 apoptosis assay; assay type: cell-based, human
Description: as §2

[16] = system: H3K27 methylation in NCI-H522 tumor xenograft tissue; experiment: Pharmacodynamic Western blot of xenograft tumor tissue; assay type: in vivo, mouse; conditions: strongest at 450 mg/kg BID; day 7, three hours after dosing
Description: (§6) Plasma and tumor samples for pharmacodynamic analysis were collected from tumor-bearing mice on day 7, 3 hours following the last dose. Tumor tissue was lysed in RIPA buffer containing 1M NaCl and homogenized for 3 minutes at speed 10 (NEXTADVANCE, BULLET BLENDER® 24) prior to Western blotting.

[17] = system: H3K27me3 in TOV-21G tumor xenograft tissue; experiment: as above; assay type: in vivo, mouse; conditions: day 7, three hours following twice-daily oral administration
Description: as §6

[18] = system: H3K27me3 at the SMARCA2 promoter; experiment: H3K27me3 ChIP-PCR; assay type: cell-based, human; conditions: TOV-112D cells
Description: For each sample, 10×10^6 cells were harvested and washed with 1×PBS. Cells were fixed and sheared following the instructions provided with the truChlP Chromatin Shearing Reagent Kit (Covaris). Cells were fixed for 5 minutes with 1% formaldehyde and then quenched with quenching buffer for 5 minutes. Cells were then washed with cold 2×PBS. Nuclei were isolated and sheared using the Covaris AFA Focused-ultrasonicator for 20 minutes. The IP was conducted with 500 μg sheared chromatin and 10 μg anti-H3K27me3 (Active Motif cat #39155) or anti-Rabbit IgG. The Magna ChIP kit (Millipore) was used for IP. For each IP, a 50 μl mixture of Dynabeads protein A and G (50/50 mix) was incubated with primary antibody for 3 hours. The beads were added to 500 μg of sheared chromatin. The beads and antibodies were incubated overnight at 4° C. The beads were then washed with the following wash buffers: low salt, high salt, LiCI wash buffer, and TE Buffer. DNA was extracted from the beads in ChIP elution buffer with protease K at 64° C. with shaking overnight. DNA was then purified using the QIAquick PCR Purification Kit (Qiagen). DNA was eluted with 30 μl of water. 1.0 μl of eluted DNA was used for each SYBR green PCR reaction. SMARCA2 was amplified using the following primers: forward, […] (SEQ ID NO: 27); reverse, […] (SEQ ID NO: 28). […]

[19] = SMARCA4-mutant cells resistant to EPZ-6438 (H1299, A549)
[20] = SMARCA4-mutant cells sensitive to EPZ-6438 (SNU-484, TOV112D), dose-dependent
[21] = OVTOKO and OVISE ARID1A-mutant cell lines
[22] = COV434, SNU-484 and G401 cells expressing shBRM

## Nc1ncn([C@H]2C[C@H](O)[C@@H](CO)O2)c(=O)n1 [5-aza-2′-deoxycytidine]
[1]; SMARCA4-mutant cells with repressed SMARCA2
  SMARCA2 mRNA levels: did not impact

## CCS(=O)(=O)N1CCC([C@@H](C)n2c(C)c(C(=O)NCc3c(OC)cc(C)[nH]c3=O)c3ccccc32)CC1 [CPI-169]
[2]; [19]
  colony formation: no effect
[2]; [20]
  colony formation: inhibited colony formation
[3]; A2780 cells (positive control)
  acini formation: inhibition of both clonogenic growth and acini formation
[3]; [21]
  acini formation: lack of activity
[4]; ARID1A-mutant versus ARID1A-WT ovarian cell lines
  differential sensitivity of colony formation: phenocopied

## CCN(c1cc(-c2ccc(CN3CCOCC3)cc2)cc(C(=O)NCc2c(C)cc(C)[nH]c2=O)c1C)C1CCOCC1 [EPZ-6438]
[5]; COV434 model
  kinetics of senescence induction (homogenous β-galactosidase expression): homogenous expression of β-galactosidase by seven days
[5]; NCI-HS22 cells
  kinetics of senescence induction (homogenous β-galactosidase expression): not observed until a few weeks
[5]; some SMARCA4-mutant EPZ-6438-sensitive models, most notable in COV434 and NCI-HS22
  senescence-associated β-galactosidase expression: Increases in senescence-associated β-galactosidase expression
[2]; [22]
  colony formation in cells expressing SMARCA2 shRNA (shBRM): did not affect the ability of EPZ-6438 to inhibit colony formation
[2]; TOV-112D cells expressing shBRM
  dose-dependent inhibition of colony formation in cells expressing shBRM: prevented the dose-dependent inhibition of colony formation
[2]; panel of 11 SMARCA4-mutant cancer cell lines, increasing doses
  inhibition in colony formation: dose-dependent inhibition in colony formation was observed in a subset
[6]
  CTSB transcript and protein: strongly upregulated
[7]
  morphologic changes (cell flattening and enlargement): pronounced morphologic changes
[3]; A2780 cells (positive control)
  acini formation: inhibition of both clonogenic growth and acini formation
[3]; [21]
  acini formation: lack of activity
[8]; 450 mg/kg BID
  tumor growth inhibition (TGI): 72%
[8]; twice daily (BID), 30, 100, 450 mg/kg, 23 days
  inhibition of tumor growth: dose-dependent inhibition of tumor growth
[9]
  tumor growth inhibition: tumor growth inhibition
[10]; [22]
  inhibition of H3K27 methylation in cells expressing shBRM: no effect on the ability of EPZ-6438 to inhibit H3K27 methylation
[10]; EPZ-6438-sensitive and EPZ-6438-resistant cell lines, dose-dependent, 6-day treatment
  inhibition of mono-, di-, and tri-methylated H3K27: inhibited mono-, di-, and tri-methylated H3K27 to a similar extent
[4]; panel of ARID1A-mutant cancer cell lines
  inhibition in colony formation: inhibition in colony formation was observed in a subset
[11]
  inhibition in colony formation: inhibition in colony formation
[12]
  activity on colony formation: No activity; also recorded: No effect
[13]
  DNA synthesis / proliferative state by Edu incorporation: non-proliferative state; also recorded: inhibition of DNA synthesis
[14]
  apoptosis (caspase 3/7): subpopulations of apoptotic cells
[15]; TOV-112D cells expressing shBRM, 6 days
  dose-dependent induction of apoptosis in cells expressing shBRM: prevented
[15]; TOV-112D cells expressing shRNAs targeting CTSB
  activation of caspase 3/7 in cells expressing shCTSB: significantly suppressed
[15]; TOV-112D cells, seven days of treatment
  apoptotic response (caspase 3/7): strong apoptotic response
[16]
  H3K27me3 and H3K27me2 in tumor tissue: reduction of H3K27me3 and H3K27me2
[17]
  H3K27me3 in tumor tissue: target inhibition
[1]; EPZ-6438-resistant SMARCA4-mutant cell lines, 5 μM
  induction of SMARCA2 transcript and protein: but not EPZ-6438-resistant
[1]; EPZ-6438-sensitive ARID1A-mutant A2780 cells, 5 μM, 6 days
  induction of SMARCA2: induction of SMARCA2
[1]; EPZ-6438-sensitive SMARCA4-mutant cell lines, 5 μM
  induction of SMARCA2 transcript and protein: strong induction
[1]; SMARCB1-mutant MRT line G401, 6 days, EPZ-6438 5 μM, 5-Aza 1 μM
  SMARCA2 levels: induction in SMARCA2 levels
[18]
  association of H3K27me3 with the SMARCA2 gene promoter: significant decrease

## CC[C@H](C)n1cc(C)c2c(C(=O)NCc3c(C)cc(C)[nH]c3=O)cc(-c3ccc(N4CCNCC4)nc3)cc21 [GSK-126]
[2]; [19]
  colony formation: no effect
[2]; [20]
  colony formation: inhibited colony formation
